Legend:
Format in all cases: functional
Escherichia coli [1] = assay: Antimicrobial activity against ESBL producing Escherichia coli isolated from patient bloodstream assessed as resistant isolate by Etest method in presence of Tazobactam
Escherichia coli [2] = assay: Antimicrobial activity against ESBL producing Escherichia coli isolated from patient bloodstream assessed as resistant isolate by Etest method
Escherichia coli [3] = assay: Antimicrobial activity against ESBL producing Escherichia coli isolated from patient bloodstream assessed as resistant isolate by Etest method in presence of clavulanic acid

Compound `C[C@]1(Cn2ccnn2)[C@H](C(=O)O)N2C(=O)C[C@H]2S1(=O)=O` [TAZOBACTAM] has an Activity (Escherichia coli [1]) of 15.5%.

With `NCC[C@H](O)C(=O)N[C@@H]1C[C@H](N)[C@@H](O[C@H]2O[C@H](CN)[C@@H](O)[C@H](O)[C@H]2O)[C@H](O)[C@H]1O[C@H]1O[C@H](CO)[C@@H](O)[C@H](N)[C@H]1O` [AMIKACIN] the Activity (Escherichia coli [2]) was 0%.

With `O=C(O)c1cn(C2CC2)c2cc(N3CCNCC3)c(F)cc2c1=O` [CIPROFLOXACIN] the Activity (Escherichia coli [2]) was 92.2%.

With `C[C@@H](O)[C@H]1C(=O)N2C(C(=O)O)=C(S[C@@H]3CN[C@H](C(=O)N(C)C)C3)[C@H](C)[C@H]12` [MEROPENEM] the Activity (Escherichia coli [2]) was 0%.

With GENTAMICIN the Activity (Escherichia coli [2]) was 33.3%.

Work on `C[C@@H](O)[C@H]1C(=O)N2C(C(=O)O)=C(SCCNC=N)C[C@H]12` [IMIPENEM ANHYDROUS] yielded an Activity (Escherichia coli [2]) of 0%.

Compound `C[C@H]1COc2c(N3CCN(C)CC3)c(F)cc3c(=O)c(C(=O)O)cn1c23.C[C@H]1COc2c(N3CCN(C)CC3)c(F)cc3c(=O)c(C(=O)O)cn1c23.O` [LEVOFLOXACIN] has an Activity (Escherichia coli [2]) of 92.2%.

`CC1(C)S[C@@H]2[C@H](NC(=O)[C@H](N)c3ccc(O)cc3)C(=O)N2[C@H]1C(=O)O` [AMOXICILLIN] was tested, and the Activity (Escherichia coli [3]) was 30.2%.

— ChEMBL document CHEMBL1671616, “Bloodstream infections caused by extended-spectrum-beta-lactamase- producing Escherichia coli: risk factors for inadequate initial antimicrobial therapy” (2008)
